Test results published in patent publication US11685741B2, “Fluorescent probes” (University of Massachusetts, priority 2017, dated 2023).

Experiments:
[1] = Binding studies of sensor with Fe2+ (stoichiometry, affinity, reversibility); conditions: for binding constant: 1:1 sensor-Fe^2+ complex, H2O/THF pH 7.3 v/v 1:1
Procedure: The binding stoichiometry between the sensor Rh6GD and Fe^2+ was investigated by absorption and fluorescence titrations first. The sensor, Rh6GD has an absorption band at ˜420 nm (FIG. 26) which is due to the transition from S0 to S1 states (A. Chakraborty, et al., N. Chem. Phys., 2006, 324, 733) of the dimethylaminocinnamaldehyde moiety. […] Similar titrations were performed and were monitored by fluorescence spectroscopy.
The binding constant was estimated by using the absorption titration results. The equations below were used to calculate the binding constant for 2:1 complexes following a reported procedure (M. Guo, et al., Dalton Trans., 2007, 102, 4951). S+2L ? SL2 (1) The complex apparent binding constant is given by
[formula] Fc is the fraction of L that formed a complex; the subscripts e and o stand for equilibrium and initial concentrations, respectively. Au, Am, and Ac are the absorbances of solutions of L (before any Fe^2+ was added), during the titration, and at saturation, respectively. The concentration of free Fe^2+ at equilibrium, [S]e, is found with the following identity: [S]e=[S]o−[SL2]e[=S]o−Fc[L]o (4) Finally, the integrated apparent binding constant equation is shown in equation (5).
Reversibility experiments were carried out by adding the metal chelator EDTA to the Rh6GD-Fe^2+ complex in H2O/THF (pH 7.3, v/v 4:1). […]
Besides metal-selectivity, the binding constant, which describes the strength of binding between the sensor and metal cations, is also an important factor to be considered in bio-imaging. […] Job's method was applied to study the binding stoichiometry between Rh101D and Fe^2+ and monitored by the absorbance at 585 nm.
The binding constants were estimated by using the fluorescence titration results (FIG. 38). […]
The binding stoichiometry and the affinity between the sensor NIRh-Fret and Fe^2+ were investigated by UV-vis absorption titration. […] The binding constant for the formation of this complex was determined to be 2.9×10^6 M^−1 using a reported procedure (C. A. Perez, et al., J. Inorg. Biochem., 2009, 103, 326). […]

[2] = Effect of pH on fluorescence of sensor and its Fe complex; type: physicochemical; conditions: pH adjusted with HCl/NaOH
[3] = Solubility of sensor noted in NMR studies; type: physicochemical; conditions: NMR sample solution
From the text: The binding site of Fe^2+ on Rh101D was investigated by 2D NMR. […] COSY NMR spectra are of sufficient resolution for the assignment of the peaks in the aromatic region (FIG. 44). After adding Fe^2+ to Rh101D, all the ^1H NMR signals were broadened.
In order to probe the binding site of Fe^2+ on the NIRh-Fret sensor, 1D and 2D ^1H NMR of the sensor NIRh-Fret was investigated first. […] The assignment of the ^1H NMR peaks was based on 2D ^1H-^1H COSY spectra.

[4] = test system: cells in the culture experiments; assay: Cell permeability and toxicity in the culture experiments; type: cell-based; conditions: for cell permeability: live cells in culture

| SMILES | apparent binding constant ([1]; 2:1 sensor-Fe^2+ complex, absorption titration, H2O/THF pH 7.3 v/v 4:1) | pH range over which sensor (and Fe complex) fluorescence is stable / working pH range [2] | binding constant [1] | solubility [3] | cell permeability [4] | pH range over which sensor (and Fe complex) fluorescence is stable / working pH range ([2]; listed as Rh-Pk) | toxicity for cells ([4]; culture experiments) |
| --- | --- | --- | --- | --- | --- | --- | --- |
| CCNc1cc2c(cc1C)C1(c3cc(C)c(NCC)cc3O2)c2ccccc2C(=O)N1/N=C/C=C/c1ccc(N(C)C)cc1 [Rh6GD, 2-(((1E,2E)-3-(4-(dimethylamino)phenyl)allylidene)amino)-3′,6′-bis(ethylamino)-2′,7′-dimethylspiro[isoindoline-1,9′-xanthen]-3-one] | 1.8×10^11 M^−2 | 9.3 to 4.5 |  |  |  |  |  |
| CCN(CC)c1ccc2c(c1)OC1=C(CCC/C1=C\C=C1\N(C)c3ccccc3C1(C)C)C21c2ccccc2C(=O)N1/N=C\C=C\c1ccc(N(C)C)cc1 (stereo not shown) [NIRh-Fret, (E)-6′-(diethylamino)-2-(((1Z,2E)-3-(4-(dimethylamino)phenyl)allylidene)amino)-4′-(2-((E)-1,3,3-trimethylindolin-2-ylidene)ethylidene)-1′,2′,3′,4′-tetrahydrospiro[isoindoline-1,9′-xanthen]-3-one] |  | ≥ 4.5 | 2.9e+06 M⁻¹ | limited solubility |  |  |  |
| CN(C)c1ccc(/C=C/C=N/N2C(=O)c3ccccc3C23c2cc4c5c(c2Oc2c3cc3c6c2CCCN6CCC3)CCCN5CCC4)cc1 [Rh101D] |  | 9.5 to 4.5 | 120000 M⁻¹ | limited solubility | cell permeable |  |  |
| CCN(CC)c1ccc2c(c1)Oc1cc(N(CC)CC)ccc1C21c2ccccc2C(=O)N1CC/N=C(\C)c1cccc(C(C)=O)n1 [Rh-PK, (E)-2-(2-((1-(6-acetylpyridin-2-yl)ethylidene)amino)ethyl)-3′,6′-bis(diethylamino)spiro[isoindoline-1,9′-xanthen]-3-one] |  | 4 to 9 |  |  | excellent cell permeability | 4-9 | non-toxic |
